# Test results as given in patent US20230204565A1, “Methods for Culturing Cancer Cells and for Inhibiting Invasion of Cancer” (The Regents of the University of California, priority 2020, published 2023).
# Entries after “also recorded” stand apart in the source; their conditions may differ.
# How the values were obtained:
# oRG cells = experiment: Time-lapse imaging of mitotic somal translocation (MST) after shRNA knockdown, primary cortical slice culture; type: cell-based, human; settings: for length of MST (somal translocation length): oRG cells during normal human development, primary slice culture, vs scrambled control hairpin
# Description: As described by Hansen et al. (2010), human fetal brain tissue was collected and transported in artificial CSF (ACSF; 125 mm NaCl, 2.5 mm KCI, 1 mm MgCl2, 2 mm CaCl2, 1.25 mm NaH2PO4, 25 mm NaHCO3, 25 mm d-(+)-glucose, bubbled with 95%O2/5%CO2). Brain tissue was embedded in 3% low melting point agarose in ACSF and 250-300 µm coronal vibratome sections were generated. Sections were transferred on Millicell-CM slice culture inserts (Millipore) and cultured in cortical slice culture medium (66% BME, 25% Hanks, 5% FBS, 1% N-2, 1% penicillin, streptomycin and glutamine, all Invitrogen, and 0.66% d-(+)-glucose, Sigma-Aldrich). High titer gfp labeled lentivirus was applied directly to slices that were then cultured at 37° C., 5% CO2, 8% O2 for ~ 96 h. For time-lapse imaging, cultures were then transferred to an inverted Leica TCS SP5 with an on-stage incubator streaming 5% CO2, 5% O2, balance N2 into the chamber. Slices were imaged for GFP using a 10x objective at 15-30 min intervals for up to 3 d with repositioning of the z-stacks every ~12 h. Movies were analyzed with Imaris.
# PTPRZ1 and its ligand, PTN, are identified in this disclosure as necessary for tumor invasion and viability. It was tested whether the expression of PTPRZ1 is required for the role of oRG-like cells in glioblastoma invasion using genetic and pharmacologic approaches. Previous work has linked PTPRZ1 and PTN with the Rho/Rho-kinase (ROCK) signaling pathway in glioblastoma. […] Given that the functional significance of key oRG markers such as PTPRZ1 remains unknown, and the role of MST has not been previously described in glioblastoma, the role of PTPRZ1/PTN signaling in oRG cell behavior was studied. shRNA mediated knock down of both PTPRZ1 and PTN in oRG cells was used during normal human development and the impact on MST was monitored. […] To relate these findings to invasive behavior, in vitro invasion assays were performed on PDX tumor samples treated with either control, scrambled shRNAs, PTPRZ1 shRNAs, or Rock inhibitor to inhibit MST.
# [1] = system: patient derived xenograft (PDX) line DBTRGFL; experiment: In vitro invasion assay (gap filling); type: cell-based, human; settings: imaged every 24 hours, Day 0 to Day 3, vs scrambled shRNA control
# Procedure: FIG. 6B. PTPRZ1 Promotes MST driven invasiveness of glioblastoma. Invasion assays of patient derived xenograft (PDX) line DBTRGFL were performed with control (scrambled shRNA), PTPRZ1 knockdown (shRNA) and Rock Inhibition. Invasions were imaged every 24 hours, and Day 0 and Day 3 are shown. Quantification was performed by calculating how much of the gap was filled. Statistics were performed for both PTPRZ1 knockdown and Rock inhibition, and statistics are showing for Rock inhibition on top and PTPRZ1 knockdown below (* = p <0.05, ** p < 0.01, *** p < 0.001, Student’s two-sided t-test).
# PTPRZ1 and its ligand, PTN, are identified in this disclosure as necessary for tumor invasion and viability. It was tested whether the expression of PTPRZ1 is required for the role of oRG-like cells in glioblastoma invasion using genetic and pharmacologic approaches. Previous work has linked PTPRZ1 and PTN with the Rho/Rho-kinase (ROCK) signaling pathway in glioblastoma. […] Given that the functional significance of key oRG markers such as PTPRZ1 remains unknown, and the role of MST has not been previously described in glioblastoma, the role of PTPRZ1/PTN signaling in oRG cell behavior was studied. shRNA mediated knock down of both PTPRZ1 and PTN in oRG cells was used during normal human development and the impact on MST was monitored. […]
# PTPRZ1 = experiment: Validation of knockdown (immunofluorescence, Western blot, qPCR); type: cell-based, human; settings: vs scrambled control hairpin
# Procedure: FIG. 12B. Transplants of primary glioblastoma tumors into cortical organoids. […] Western blot and qPCR to validate knockdown (quantified across 3 replicates for qPCR) were also performed.
# [2] = system: primary developing human cortex cells and primary glioblastoma cells; experiment: Single-cell RNA sequencing after PTPRZ1 knockdown; type: cell-based; settings: primary and glioblastoma samples
# Description: FIG. 5F. Sorting for PTPRZ1 positive cells enriches for oRG-like cells. Workflow of single-cell sequencing is shown. PTPRZ1 KD and a scrambled control were used to knockdown PTPRZ1 in both primary developing human cortex cells and primary glioblastoma cells. […] (* = p-value < 0.05). […] These changes were accompanied by a significant downregulation of several outer radial glia marker genes.
# Primary cells (GW 17, n = 2) and primary tumor samples (n = 2) were dissociated and infected with lentivirus either with a hairpin against PTPRZ1 mRNA or a control hairpin during plating. Cells were maintained in their normal media conditions for 1 week, after which cells were removed from the plate with trypsinization, dissociated into a single-cell suspension, and captured with 10X v2 single-cell as previously described.
# To better understand the molecular mechanism of PTPRZ1 signaling in glioblastoma tumor propagation, and to characterize how these cells differ from normal radial glia, in vitro KD was performed of PTRPZ1 in dissociated cell culture of primary developing cortex, primary tumor dissociated cell culture, and PDX dissociated cell culture. […] Each control/treatment pair was analyzed individually and the radial glia populations were isolated for further examination (FIG. 5F). […]
# [3] = Proliferation, cell titer blue assay; type: cell-based; settings: any time point, n=5
# Description: FIG. 12D. Transplants of primary glioblastoma tumors into cortical organoids. Proliferation as indicated by cell titer blue assay is shown for PTPRZ1 shScr (Ctrl) or shPTPRZ1 (KD). […] On the right, an invasion well with white lines added to mark the bounds of the invasion chamber.
# [4] = system: DBTRGFL patient derived xenograft line; experiment: Time-lapse imaging of MST after shRNA knockdown in PDX line; type: cell-based, human; settings: 4 technical replicates
# Procedure: FIG. 6A. PTPRZ1 Promotes MST driven invasiveness of glioblastoma.
# Dissociated tumor cells were seeded onto matrigel coated glass bottom wells. 24 hours after plating cells were infected with a CMV-adeno-GFP virus (Vector Biolabs) to allow for visualization of cell morphology and behavior. Cell were cultured at 37° C., 5% CO2, and 8% O2, and monitored for GFP and expression (~ 24 to 48 h). Cultured cells were then transferred to an inverted Leica TCS SP5 with an on-stage incubator (while streaming 5% CO2, 5% O2, balance N2 into the chamber), and imaged in both the GFP and transmitted light channels using a × 10 objective at 15-20 min intervals for up to 4. Movies were analyzed with Imaris.
Substance,length of MST (somal translocation length) (oRG cells),invasive behavior of the PDX tumors [1],PTPRZ1 protein knockdown (PTPRZ1),"proportion of radial glia and other progenitor populations ([2]; 1 week after lentiviral infection, vs scrambled hairpin)",expression of other key markers of radial glia identity ([2]; radial glia populations),"somal translocation length (oRG cells; primary samples, 3 biological replicates and 4 technical replicates each (FIG. 6A))","Proliferation, difference shScr (Ctrl) vs shPTPRZ1 (KD) [3]",length of MST (somal translocation length) [4]
"PTN shRNA: short hairpin RNA knocking down PTN, the ligand of PTPRZ1; exemplary sequence SEQ ID NO: 6 (CCGGAGGCAAGAAACAGGAGAAGATCTCGAGATCTTCTCCTGTTTCTTGCCTTTTTT)",significantly reduced the length of MST; also recorded: decrease the length of somal translocation length,–,–,–,–,–,–,–
"PTPRZ1 shRNA: short hairpin RNA against PTPRZ1 mRNA, lentivirus-delivered; exemplary sequence SEQ ID NO: 5 (CCGGCCAGACAACAAGCACAAGAATCTCGAGATTCTTGTGCTTGTTGTCTGGTTTTT)",significantly reduced the length of MST; also recorded: decrease the length of somal translocation length,significantly decreased the invasive behavior,validates protein knockdown,decrease in the proportion of both radial glia and other progenitor populations,down-regulated,decrease the length of somal translocation length,not significant,similarly impacted the length of MST; also recorded: decrease the length of somal translocation length
